# How the values were obtained:
# [1] = system: HSP70; assay: HSP70 expression in Neuro2A cells by western blot; format: cell-based, mouse; settings: Neuro2A cells, western blot
# Method: Differentiation was induced and cells incubated with geranylgeranyl transferase I inhibitor, GGTI-298. Cells were harvested and lysates were prepared and analyzed by western blot for HSP70 and HSP90. Western signals in the absence of the compounds were normalized as 1.00.
# [2] = system: Murine neuro2A neuroblastoma cells; assay: Neurite outgrowth of neuro2A cells inhibited with GGTI-298 (Example 30); format: cell-based, mouse; settings: for Relative %: relative to uninhibited count
# Method: Differentiation was induced and cells incubated with geranylgeranyl transferase I inhibitor, GGTI-298. After 24 h digital images were taken and neurite outgrowth was quantified. The comparisons of the neuroprotective effect of these three compounds are shown below.
# The estimated mean log10 counts, from five replicate wells for each treatment group were calculated by PROC GLM in SAS assuming a pooled estimate of variation.
# The estimated mean log10 counts from five replicate wells for each treatment group were calculated by PROC GLM in SAS assuming a pooled estimate of variation.
# Differences in mean log(counts) between treatments for each concentration were calculated using PROC GLM in SAS. The p-value given is for the comparison of the estimated difference to zero, the expected difference value for no treatment effect. The anti-log of the differences represent the estimated ratio of counts (relative effect on inhibition) and are tabulated below along with the lower and upper 95% confidence intervals.
# [3] = system: rats, kainic acid model; assay: Concentration dependence of neuroprotection in the kainic acid model; format: in vivo, rat; settings: one dose at 0, 1, 3, 6, 12 or 24 mg/kg; fraction of cells damaged
# Method: The fraction of cells damaged in the kainic acid model was determined on 130 rats, each receiving one dose of CNS-102 at either 0, 1, 3, 6, 12 or 24 mg/kg. PBS was used for dosing at 0 mg/kg. The linear model of the log10 percent damage versus concentration is graphically shown FIG. 5.
# [4] = Blood chemistry and hematology in Sod1 mutant and wild type mice; settings: daily oral 12 mg/kg
# Method: A total of 84 male mice (64 transgenic Sod1 mutant mice; 20 wild type mice) were included in the study. Dosing was administered daily beginning at postnatal day 38 (P38) via a single bolus oral gavage injection.
# Blood and serum samples from days P70 and P100 were collected on three animals from each of the six treatment groups. Hematology measures were white blood cell count, red blood cell count, hemoglobin, hematocrit, mean corpuscular volume, mean corpuscular hemoglobin, mean corpuscular hemoglobin concentration, and platelets. Chemistry values were alanine aminotransferase, aspartate aminotransferase, albumin, total protein, gamma globulin, blood urea nitrogen, cholesterol, and glucose.
smiles,measurement,setting,value
CC(=O)CC/C=C(\C)CC/C=C(\C)CC/C=C(\C)CCC=C(C)C [CNS-102],induction of HSP70 expression (in words),[1],induce expression of HSP70 at various concentrations
same,Median Counts of cells with neurite outgrowth,"[2]; 10 nM, CNS-101 vs CNS-102 experiment (no inhibition 95.5, PBS 21.5)",33.8
same,Relative %,"[2]; 10 nM, CNS-101 vs CNS-102 experiment",35.4%
same,Median Counts of cells with neurite outgrowth,"[2]; 100 nM, CNS-101 vs CNS-102 experiment (no inhibition 95.5, PBS 21.5)",43.4
same,Relative %,"[2]; 100 nM, CNS-101 vs CNS-102 experiment",45.4%
same,Median Counts of cells with neurite outgrowth,"[2]; 100 nM, CNS-102 vs CNS-103 experiment (no inhibition 60.3, PBS 18.5)",33.5
same,Relative %,"[2]; 100 nM, CNS-102 vs CNS-103 experiment",55.6%
same,Median Counts of cells with neurite outgrowth,"[2]; 1000 nM, CNS-101 vs CNS-102 experiment (no inhibition 95.5, PBS 21.5)",51.0
same,Relative %,"[2]; 1000 nM, CNS-101 vs CNS-102 experiment",53.4%
same,Median Counts of cells with neurite outgrowth,"[2]; 1000 nM, CNS-102 vs CNS-103 experiment (no inhibition 60.3, PBS 18.5)",23.8
same,Relative %,"[2]; 1000 nM, CNS-102 vs CNS-103 experiment",39.5%
same,Median Counts of cells with neurite outgrowth,"[2]; 10000 nM, CNS-101 vs CNS-102 experiment (no inhibition 95.5, PBS 21.5)",38.2
same,Relative %,"[2]; 10000 nM, CNS-101 vs CNS-102 experiment",40%
same,maximum protection,"[2]; CNS-101 vs CNS-102 experiment, FIG. 4A",~40%
same,maximum protection,"[2]; CNS-102 vs CNS-103 experiment, FIG. 4B",~36%
same,minimal effective dose,[3],12 mg/kg
same,cholesterol levels (in words),[4],cholesterol levels were reduced

# Source: patent US9045403B2 (Coyote Pharmaceuticals, Inc., priority 2012, dated 2015)
